Results reported in patent US4783462A, “3(2H)pyridazinone, and anti-allergic agent containing it” (Nissan Chemical Industries Ltd., priority 1985, dated 1988).

Experiments:
LTD4 = LTD4 antagonism in isolated guinea-pig trachea with indomethacin, Test method (ii) (Table 4); format: cell-based; details: Cavia porcellus, 0.5 h, LTD4 2×10^-8 g/ml, test compound 10^-6 g/ml, 30 min prior, 5 μmol indomethacin
Description: (ii) LTD4 antagonism in guinea-pig trachea
Antagonism for LTD4 was determined in isolated guinea-pig trachea prepared as spiral strip. Tracheal preparations were suspended under 1 g tension in 10 ml organ baths containing 5 μmol of indomethacin and they were incuated for 1 hr prior to use. Contractile responses to LTD4 (2×10^-8 g/ml) were obtained after the maximal response to histamine (10^-4 M). Test compounds dissolved in 100% dimethyl sulfoxide were added to the organ baths (final concentration of 10^-6 g/ml) 30 min prior to LTD4 addition, and then contractile responses to LTD4 were compared with those of control which was obtained from a paired trachea in the absence of test compounds. LTD4 -induced contractions were expressed as a percentage of the maximal response to histamine. The antagonism was determined as follows:
(§1) Antagonism (%)=(1.0-% contraction in test/% contraction in […]

LTC4 = assay: Antagonism in isolated guinea-pig trachea, Test method (i) (Table 3, given as LTC4 antagonism); format: cell-based; details: Cavia porcellus, 5 min, test compound 10^-5 g/ml, given as LTC4 antagonisms
Description: (i) LTC4 and LTD4 antagonisms in guinea-pig trachea
Antagonisms for LTC4 and LTD4 were determined in isolated guinea-pig trachea prepared as spiral strip. Tracheal preparations were suspended under 1 g tension in 10 ml organ baths and they were incubated for 1 hr prior to use. Contractile responses to LTC4 (2×10^-8 g/ml) and LTD4 (2×10^-8 g/ml) were obtained after the maximal response to histamine (10^-4 M). Test compounds dissolved in 100% dimethyl sulfoxide were added to the organ baths (final concentration of 10^-5 g/ml or 10^-6 g/ml) 5 min prior to LTC4 and LTD4 addition, and then contractile responses to LTC4 and LTD4 were compared with those of control which was obtained from a paired trachea in the absence of test compounds. LTC4 - and LTD4 -induced contractions were expressed as a percentage of the maximal response to histamine. The antagonism was determined as follows:
as §1

ddY strain male mice = assay: Acute toxicity test, Test method-(2), intraperitoneal; format: in vivo; details: 7 days
Description: The lethal ratio was determined in ddY strain male mice (4 weeks old) at 7 days after the intraperitoneal injection of test compounds.

[1] = system: anaphylactic bronchoconstriction in passively sensitized guinea-pig; assay: Effect on anaphylactic bronchoconstriction in passively sensitized guinea-pig; format: in vivo; details: 2 mg/kg i.v.
Description: (iii) Effect on anaphylactic bronchoconstriction in passively sensitized guinea-pig
Male guinea-pigs (350-450 g) were passively sensitized with intravenous (i.v.) injection of 0.125 ml rabbit anti-EA (egg albumin) serum (Cappel Laboratories) 1 day preceding the experiment. […] Sensitized guinea-pigs were anaesthetized with intraperitoneal injection of urethane (1.5 g/kg). The right jugular vein was cannulated for the administration of the all agents and trachea was cannulated to record total pulmonary resistance. Guinea-pigs were artificially ventilated by a small animal respirator (Shinano, Model SN-480-7) set at a stroke volume of 5 ml and a rate of 50 breaths per min. […] The increase in air overflow volume was expressed as a percentage of the maximum bronchoconstriction obtained by clamping off the trachea. Following surgical preparation, the animals were pretreated with indomethacin (1.0 mg/kg, 10 min), pyrilamine (2 mg/kg, 6 min) and propranolol (0.1 mg/kg, 5 min) prior to the EA challenge (0.1 or 10 mg/kg). All test compounds, 2 mg/kg in 3% Tween 80 or 3% PEG-400, were administered 1 min before the EA challenge. Inhibition (%) of bronchoconstriction was determined as follows: Inhibition (%)=(1.0%-maximum bronchoconstriction in test/% maximum bronchoconstriction in control)×100. The maximum bronchoconstriction was obtained within 20 min after the EA challenge.
In the Table, the dose of EA was 10 mg/kg, and each compound was dissolved or suspended in 3% Tween 80.
The dose of EA was 0.1 mg/kg.

[2] = Table 5-(2), EA 0.1 mg/kg, Tween 80
[3] = Table 5-(1), EA 10 mg/kg, 3% Tween 80
[4] = Table 5-(2), EA 0.1 mg/kg, PEG-400

Compound	inhibition at 1 µg/mL (LTD4) [%]	inhibition at 10 µg/mL (LTC4) [%]	also measured
CCCc1cc(C(=O)OC)ccc1OCCCNc1cnn(C(C)C)c(=O)c1Cl [Compound No. 44, 4-choloro-5-[3-(2-n-propyl-4-methoxycarbonylphenoxy)propylamino]-2-i-propyl-3(2H)pyridazinone]	63	90	Lethal ratio (Death number/Experimental number) (ddY strain male mice; 200 mg/kg intraperitoneal): 0/1; Lethal ratio (Death number/Experimental number) (ddY strain male mice; 400 mg/kg intraperitoneal): 0/1
CCCc1cc(C(=O)OCC)ccc1OCCCNc1cnn(C(C)C)c(=O)c1Cl [Compound No. 64, 4-chloro-5-[3-(2-n-propyl-4-ethoxycarbonylphenoxy)propylamino]-2-i-propyl-3(2H)pyridazinone]	–	87	Inhibition (%) [1, 2]: 56%
CCCc1cc(C(=O)O)ccc1OCCCNc1cnn(C(C)C)c(=O)c1Cl [Compound No. 67]	–	99	Inhibition (%) [1, 2]: 62%
CCc1cc(C#N)ccc1OCCCNc1cnn(C(C)C)c(=O)c1Cl [Compound No. 98]	80	89	–
CCCc1cc(C(=O)OC)ccc1OCC(=O)CNc1cnn(C(C)C)c(=O)c1Cl [Compound No. 161, 4-Chloro-5-[3-(2-n-propyl-4-methoxycarbonylphenoxy)-2-oxopropylamino]-2-i-propyl-3(2H)pyridazinone]	–	71	Inhibition (%) [1, 2]: 20%
CCCCc1cc(C#N)ccc1OCCCNc1cnn(CC)c(=O)c1Br [Compound No. 181, 4-Bromo-5-[3-(2-n-butyl-4-cyanophenoxy)propylamino]-2-ethyl-3(2H)pyridazinone]	70	–	–
COc1cccc(OCCCOc2cnn(C(C)(C)C)c(=O)c2Cl)c1 [compound 27]	–	65	Inhibition (%) [1, 3]: 23%; Lethal ratio (Death number/Experimental number) (ddY strain male mice; 100 mg/kg intraperitoneal): 0/2; Lethal ratio (Death number/Experimental number) (ddY strain male mice; 200 mg/kg intraperitoneal): 0/2
CCn1ncc(OCCCOc2cccc(OC)c2)c(Cl)c1=O [compound 28]	–	61	Inhibition (%) [1, 3]: 17%; Lethal ratio (Death number/Experimental number) (ddY strain male mice; 200 mg/kg intraperitoneal): 0/2; Lethal ratio (Death number/Experimental number) (ddY strain male mice; 400 mg/kg intraperitoneal): 0/1
CCCc1cc(C(=O)OC)ccc1OCCCNc1cnn(C)c(=O)c1Cl [compound 43]	–	63	Inhibition (%) [1, 3]: 24%
CCOc1ccccc1OCCCNc1cnn(CC)c(=O)c1Cl [compound 51]	–	82	Inhibition (%) [1, 3]: 15%
COc1ccc(CCNc2cnn(C(C)C)c(=O)c2Cl)cc1 [compound 55]	–	72	Inhibition (%) [1, 3]: 26%
CCCc1cc(C#N)ccc1OCCCNc1cnn(C(C)C)c(=O)c1Cl [compound 60]	–	98	Inhibition (%) [1, 3]: 15%
CCCc1cc(C#N)ccc1OCCCOc1cnn(CC)c(=O)c1Cl [compound 65]	–	98	Inhibition (%) [1, 2]: 27%
CCOc1ccccc1OCCCNc1cnn(C(C)C)c(=O)c1Cl [compound 71]	–	88	Inhibition (%) [1, 2]: 26%
CCCc1cc(C(=O)O)ccc1OCCCN(C)c1cnn(C(C)C)c(=O)c1Cl [compound 74]	–	73	Inhibition (%) [1, 2]: 50%
CCCc1cc(C(=O)OC)ccc1OCCCOc1cnn(C(C)C)c(=O)c1Cl [compound 85]	–	78	Inhibition (%) [1, 2]: 23%
CCc1cc(C(N)=O)ccc1OCCCNc1cnn(C(C)C)c(=O)c1Cl [compound 102]	–	93	Inhibition (%) [1, 4]: 73%
CCn1ncc(NCCCOc2ccc(C(=O)OC)cc2C(C)C)c(Cl)c1=O [compound 103]	–	93	Inhibition (%) [1, 4]: 69%
CCCc1cc(OC)ccc1OCCCNc1cnn(C(C)C)c(=O)c1Cl [compound 105]	52	89	–
CCCc1cc(O)ccc1OCCCNc1cnn(C(C)C)c(=O)c1Cl [compound 109]	69	99	–
CCCCc1cc(C(=O)OC)ccc1OCCCNc1cnn(CC)c(=O)c1Cl [compound 111]	79	87	–

Compound	inhibition at 1 µg/mL (LTD4) [%]	inhibition at 10 µg/mL (LTC4) [%]	also measured
CCCCc1cc(C(=O)O)ccc1OCCCNc1cnn(CC)c(=O)c1Cl [compound 113]	54	100	–
CCCCc1cc(C(N)=O)ccc1OCCCNc1cnn(CC)c(=O)c1Cl [compound 115]	61	94	–
CCCc1cc(C(=O)OC)ccc1OCCCNc1cnn(C(C)C)c(=O)c1Br [compound 124]	92	–	–
CCCc1cc(C(=O)O)ccc1OCCCNc1cnn(C(C)C)c(=O)c1Br [compound 125]	84	–	–
CCCc1cc(OC)ccc1OCCCNc1cnn(CC)c(=O)c1Br [compound 135]	57	–	–
CCc1cc(OC)ccc1OCCCNc1cnn(CC)c(=O)c1Br [compound 137]	53	–	–
CCCc1cc(C(=O)OC)ccc1OCC(CNc1cnn(C(C)C)c(=O)c1Cl)OC (stereo not drawn) [compound 162]	–	81	Inhibition (%) [1, 2]: 49%
CCCc1cc(C(=O)O)ccc1OCC(CNc1cnn(C(C)C)c(=O)c1Cl)OC (stereo not drawn) [compound 163]	–	74	Inhibition (%) [1, 2]: 32%
CCCc1cc(C(=O)OC)ccc1OCC(CN(C)c1cnn(C(C)C)c(=O)c1Cl)OC (stereo not drawn) [compound 164]	–	71	Inhibition (%) [1, 2]: 40%
CCCCc1cc(C(=O)OC)ccc1OCCCNc1cnn(CC)c(=O)c1Br [compound 178]	69	–	–
CCCCc1cc(C(=O)O)ccc1OCCCNc1cnn(CC)c(=O)c1Br [compound 179]	63	–	–
CCCc1cc(O)ccc1OCCCNc1cnn(CC)c(=O)c1Br [compound 197]	82	–	–
CCCc1cc(O)ccc1OCCCNc1cnn(C(C)C)c(=O)c1Br [compound 198]	86	–	–
CCc1cc(C=O)ccc1OCCCNc1cnn(CC)c(=O)c1Br [compound 199]	65	–	–
CCc1cc(C=O)ccc1OCCCNc1cnn(C(C)C)c(=O)c1Br [compound 200]	81	–	–
CCCCCc1cc(C(=O)O)ccc1OCCCNc1cnn(CC)c(=O)c1Cl [compound 202]	89	–	–
CCCCCc1cc(C(N)=O)ccc1OCCCNc1cnn(CC)c(=O)c1Cl [compound 203]	94	–	–
CCCCCc1cc(C(=O)OC)ccc1OCCCNc1cnn(CC)c(=O)c1Br [compound 204]	95	–	–
CCCCCc1cc(C(=O)O)ccc1OCCCNc1cnn(CC)c(=O)c1Br [compound 205]	96	–	–
CCC(C)c1cc(C(=O)O)ccc1OCCCNc1cnn(CC)c(=O)c1Br (stereo not drawn) [compound 218]	84	–	–
